Experimental data from ChEMBL document CHEMBL5055653, “Synthesis, microbiological evaluation and structure activity relationship analysis of linezolid analogues with different C5-acylamino substituents” (2021).
≈ marks a conversion by molar mass, not a printed value. Calls of active or inactive are those of the source. No cut-off for these calls is given here.

Tests used:
Staphylococcus aureus [1] = assay: Antibacterial activity against Staphylococcus aureus 1199B assessed as reduction in bacterial growth incubated for 20 hrs by microplate reader method; type: functional
Staphylococcus aureus [2] = assay: Antibacterial activity against Staphylococcus aureus USA 300 assessed as reduction in bacterial growth incubated for 20 hrs by microplate reader method; type: functional
Enterococcus faecalis [3] = assay: Antibacterial activity against Vanomycin-sensitive Enterococcus faecalis NCTC 775 assessed as reduction in bacterial growth incubated for 20 hrs by microplate reader method; type: functional
Staphylococcus aureus [4] = assay: Antibacterial activity against Staphylococcus aureus NCTC 13616 assessed as reduction in bacterial growth incubated for 20 hrs by microplate reader method; type: functional
Enterococcus faecalis [5] = assay: Antibacterial activity against Vanomycin-resistant Enterococcus faecalis NCTC 12201 assessed as reduction in bacterial growth incubated for 20 hrs by microplate reader method; type: functional
Staphylococcus aureus [6] = assay: Antibacterial activity against Staphylococcus aureus ATCC 9144 assessed as reduction in bacterial growth incubated for 20 hrs by microplate reader method; type: functional
Enterococcus faecium = assay: Antibacterial activity against Vanomycin-resistant Enterococcus faecium NCTC 12204 assessed as reduction in bacterial growth incubated for 20 hrs by microplate reader method; type: functional
Escherichia coli = assay: Antibacterial activity against Escherichia coli NCTC 12923 assessed as reduction in bacterial growth incubated for 20 hrs in presence of PMBN by microplate reader method; type: functional, organism-based
Pseudomonas aeruginosa [7] = assay: Antibacterial activity against Pseudomonas aeruginosa PAO1 assessed as reduction in bacterial growth incubated for 20 hrs in presence of PMBN by microplate reader method; type: functional
Pseudomonas aeruginosa [8] = assay: Antibacterial activity against Pseudomonas aeruginosa NCTC 13437 assessed as reduction in bacterial growth incubated for 20 hrs in presence of PMBN by microplate reader method; type: functional, organism-based
Acinetobacter baumannii [9] = assay: Antibacterial activity against Acinetobacter baumannii AYE assessed as reduction in bacterial growth incubated for 20 hrs in presence of PMBN by microplate reader method; type: functional, organism-based
Acinetobacter baumannii [10] = assay: Antibacterial activity against Acinetobacter baumannii ATCC 17978 assessed as reduction in bacterial growth incubated for 20 hrs in presence of PMBN by microplate reader method; type: functional, organism-based

| SMILES | MIC (Staphylococcus aureus [1]) [µg/mL] | MIC (Staphylococcus aureus [2]) [µg/mL] | MIC (Enterococcus faecalis [3]) [µg/mL] | MIC (Staphylococcus aureus [4]) [µg/mL] | MIC (Enterococcus faecalis [5]) [µg/mL] | MIC (Staphylococcus aureus [6]) [µg/mL] | MIC (Enterococcus faecium) [µg/mL] | Activity (Escherichia coli) | MIC (Pseudomonas aeruginosa [7]) [µg/mL] | Activity (Pseudomonas aeruginosa [8]) | Activity (Acinetobacter baumannii [9]) | Activity (Acinetobacter baumannii [10]) | Activity (Pseudomonas aeruginosa [7]) |
| --- | --- | --- | --- | --- | --- | --- | --- | --- | --- | --- | --- | --- | --- |
| O=C(Cc1nnn[nH]1)NC[C@H]1CN(c2ccc(N3CCNCC3)c(F)c2)C(=O)O1 | > 128 | > 128 | > 128 | > 128 | > 128 | > 128 | > 128 | – | – | – | – | – | – |
| O=C(NC[C@H]1CN(c2ccc(N3CCOCC3)c(F)c2)C(=O)O1)c1cccs1 | 8 (≈ 19.7 µM) | 16 (≈ 39.5 µM) | 16 (≈ 39.5 µM) | 16 (≈ 39.5 µM) | 8 (≈ 19.7 µM) | 16 (≈ 39.5 µM) | 8 (≈ 19.7 µM) | inactive | 16 | inactive | inactive | inactive | – |
| Cn1cc([N+](=O)[O-])nc1C(=O)NC[C@H]1CN(c2ccc(N3CCOCC3)c(F)c2)C(=O)O1 | > 128 | > 128 | > 128 | > 128 | > 128 | > 128 | > 128 | – | – | – | – | – | – |
| Cc1ccc(CC(=O)NC[C@H]2CN(c3ccc(N4CCOCC4)c(F)c3)C(=O)O2)cc1 | 64 (≈ 150 µM) | 128 (≈ 299 µM) | 64 (≈ 150 µM) | 64 (≈ 150 µM) | 16 (≈ 37.4 µM) | 128 (≈ 299 µM) | 16 (≈ 37.4 µM) | – | – | – | – | – | – |
| O=C(NC[C@H]1CN(c2ccc(N3CCOCC3)c(F)c2)C(=O)O1)c1cnccn1 | 32 (≈ 79.7 µM) | 64 (≈ 159 µM) | 64 (≈ 159 µM) | 64 (≈ 159 µM) | 64 (≈ 159 µM) | 64 (≈ 159 µM) | 64 (≈ 159 µM) | – | – | – | – | – | – |
| NCC(=O)NC[C@H]1CN(c2ccc(N3CCOCC3)c(F)c2)C(=O)O1 | > 128 | > 128 | 64 (≈ 182 µM) | > 128 | 64 (≈ 182 µM) | > 128 | 32 (≈ 90.8 µM) | – | – | – | – | – | – |
| O=C(NC[C@H]1CN(c2ccc(N3CCOCC3)c(F)c2)C(=O)O1)c1cc[nH]c1 | 64 (≈ 165 µM) | 32 (≈ 82.4 µM) | 32 (≈ 82.4 µM) | 64 (≈ 165 µM) | 32 (≈ 82.4 µM) | 32 (≈ 82.4 µM) | 16 (≈ 41.2 µM) | – | – | – | – | – | – |
| O=C(NC[C@H]1CN(c2ccc(N3CCOCC3)c(F)c2)C(=O)O1)C1CCC1 | 8 (≈ 21.2 µM) | 16 (≈ 42.4 µM) | 16 (≈ 42.4 µM) | 8 (≈ 21.2 µM) | 8 (≈ 21.2 µM) | 16 (≈ 42.4 µM) | 8 (≈ 21.2 µM) | – | – | – | – | – | – |
| Cc1nc(Br)sc1C(=O)NC[C@H]1CN(c2ccc(N3CCOCC3)c(F)c2)C(=O)O1 | 16 (≈ 32 µM) | 16 (≈ 32 µM) | 32 (≈ 64.1 µM) | 16 (≈ 32 µM) | 32 (≈ 64.1 µM) | 16 (≈ 32 µM) | 32 (≈ 64.1 µM) | – | – | – | – | – | – |
| O=C(NC[C@H]1CN(c2ccc(N3CCOCC3)c(F)c2)C(=O)O1)C1CC1 | 8 (≈ 22 µM) | 8 (≈ 22 µM) | 8 (≈ 22 µM) | 8 (≈ 22 µM) | 8 (≈ 22 µM) | 8 (≈ 22 µM) | 8 (≈ 22 µM) | – | – | – | – | – | – |
| CC(=O)NC[C@H]1CN(c2ccc(N3CCOCC3)c(F)c2)C(=O)O1 [LINEZOLID] | – | – | – | – | – | – | 2 (≈ 5.93 µM) | – | – | – | – | – | – |
| O=C(NC[C@H]1CN(c2ccc(N3CCOCC3)c(F)c2)C(=O)O1)C1CC=CC1 | 8 (≈ 20.5 µM) | 16 (≈ 41.1 µM) | 16 (≈ 41.1 µM) | 16 (≈ 41.1 µM) | 8 (≈ 20.5 µM) | 16 (≈ 41.1 µM) | 16 (≈ 41.1 µM) | – | – | – | – | – | – |
| O=C(Cc1cccc2ccccc12)NC[C@H]1CN(c2ccc(N3CCOCC3)c(F)c2)C(=O)O1 | > 128 | > 128 | > 128 | > 128 | 32 (≈ 69 µM) | > 128 | 64 (≈ 138 µM) | – | – | – | – | – | – |
| O=C(NC[C@H]1CN(c2ccc(N3CCOCC3)c(F)c2)C(=O)O1)[C@@H]1CCNC1 | > 128 | > 128 | > 128 | > 128 | > 128 | > 128 | > 128 | inactive | – | inactive | inactive | inactive | inactive |
| O=C(NC[C@H]1CN(c2ccc(N3CCOCC3)c(F)c2)C(=O)O1)c1cc2ccccc2[nH]1 | > 128 | > 128 | > 128 | > 128 | > 128 | > 128 | > 128 | – | – | – | – | – | – |
